Experimental data: the METLIN SMRT retention time set (Domingo-Almenara et al. 2019)

Assay: gradient 5% acetonitrile 3 min, to 50% in 2 min, to 85% in 15 min, held 3 min, 100 µL/min
Settings: column: Zorbax Extend-C18 2.1 x 50 mm; eluents: water / acetonitrile, 0.1% formic acid
In short: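 Using water and acetonitrile that each contained 0.1% formic acid, mixtures of ~100 pure standards were separated at 100 μL/min on a Zorbax Extend-C18 column (2.1 × 50 mm, 1.8 μm). The HPLC fed a quadrupole time-of-flight mass spectrometer working in positive and negative ionization mode, with dead and dwell volumes of 40 μL and 900 μL. Data were acquired over 3 months. Retention time was read from computationally picked adduct peaks after manual inspection of each.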

| Compound | RP-LC retention time [s] |
| --- | --- |
| CC(C)Cc1cc(-c2nnc3sc(-c4ccc(N(C)C)cc4)nn23)n[nH]1 | 1060 |
| CNS(=O)(=O)c1ccc(Cl)c(-c2nnc(-c3ccc(OC)cc3)o2)c1 | 883 |
| Cc1nn(-c2nc(CC(=O)Nc3nc(-c4ccccc4)cs3)cs2)c(C)c1Cl | 1270 |
| CN(C)C(=O)c1cccc2c1CCN2C(=O)c1ccccc1 | 706 |
| CCOC(=O)C1CCCN(c2c(NCC3COc4ccccc4O3)c(=O)c2=O)C1 (stereo not drawn) | 796 |
| COc1ccc(NC(=O)N2CCN(c3nc4cccnc4s3)CC2)cc1 | 690 |
| COc1ccc(S(=O)(=O)N2CCc3nc(-c4ccc(F)cc4)ncc3C2)cc1OC | 983 |
| CCOc1ccc(Cl)cc1S(=O)(=O)N1CCC(C(=O)NCc2ccc3c(c2)OCO3)CC1 | 922 |
| O=C(Nc1ccc(F)cc1F)N1CCN(Cc2nc3cc(-c4ccccc4)ccc3o2)CC1 | 869 |
| Cc1ccc(NC(=O)Cn2nc3nc(N4CCCC(C)C4)ccn3c2=O)c(C)c1 (stereo not drawn) | 808 |
| O=C(CCc1nnc2c3cc(-c4ccc(F)cc4)nn3ccn12)NCCN1CCCC1 | 605 |
| Fc1cccc(/C=N/N=C/c2cccc(F)c2)c1 | 1290 |
| Cc1cccc2nc(-c3ccccc3)c(Nc3ccc4c(c3)OCCO4)n12 | 679 |
| COc1cccc2c1OC1(C)CC2C(S(=O)(=O)c2ccc(C(C)C)cc2)C(=O)N1C (stereo not drawn) | 1040 |
| COc1ccc(OC)c(CNC(=O)C2CCCN(c3cnc4nccnc4c3)C2)c1 (stereo not drawn) | 710 |
| CCc1ccc(NC(=O)Cn2ccc3ccc(-c4nnc(C)o4)cc32)cc1 | 885 |
| CCn1nc(CNC(=O)c2ccc(C#N)cc2)c2ccccc21 | 808 |
| CCOc1ccnc2c1c(=O)n(CC(=O)Nc1cccc(C(F)(F)F)c1)c(=O)n2C | 782 |
| COC(=O)C1=CN(c2cc(OC)cc(OC)c2)c2cc(F)ccc2S1(=O)=O | 904 |
| COC(=O)c1ccc(NC(=O)C2CCCN(c3ncnc4c3nc3n4CCCCC3)C2)cc1 (stereo not drawn) | 808 |
| O=C(NCc1ccco1)c1ccc2c(c1)nc1n2CCCCC1 | 596 |
| Cc1ccc(NC(=O)C2CCN(S(=O)(=O)c3cc(C(=O)N(C)C)cs3)CC2)cc1Cl | 912 |

| Compound | RP-LC retention time [s] |
| --- | --- |
| CN1C(=O)c2cc(C(=O)NCCCc3ccccc3)nn2CC1(C)C(=O)NCc1ccc(F)cc1 (stereo not drawn) | 813 |
| CCCN1CCN(C(=O)Cn2c3ccccc3c3cnn(C)c(=O)c32)CC1 | 590 |
| CCn1c(=O)c(C(=O)NCc2cccnc2)nc2cccnc21 | 555 |
| CC(=O)N1C[C@@H]2CCCN3CCC[C@@H]([C@H]23)[C@H]1CCCC(=O)N(C)CCc1c(C)nn(C)c1C | 556 |
| Cc1cc(C)cc(-c2nnc(Cc3nc(-c4cccc(F)c4)no3)o2)c1 | 1150 |
| O=C(NCc1ccc2c(c1)OCO2)c1ccc2c(cnn2CC(=O)N2CCCCCC2)c1 | 766 |
| Cc1ccc(CNC(=O)C2(C)CN(S(C)(=O)=O)CC(=O)N2c2cccc(Cl)c2C)cc1 (stereo not drawn) | 893 |
| O=C(Nc1cccn2nc(C3CCC3)nc12)c1ccccn1 | 961 |
| Cc1cc(C)n(CC(=O)N2CCCCCC2c2nnc(C)o2)n1 (stereo not drawn) | 631 |
| Cc1ccc(S(=O)(=O)N(C)C)cc1-c1nnc(-c2ccc(Cl)cc2)o1 | 1080 |
| CCCNC(=O)c1n[nH]c2c1CC(C)CC2 (stereo not drawn) | 740 |
| COC(=O)c1cccc(NC(=O)CSc2nccc(N3CCN(c4ccccc4OC)CC3)n2)c1 | 695 |
| O=C(Cc1cccs1)Nc1c(C(=O)N2CCN(c3ccccn3)CC2)oc2ccccc12 | 675 |
| O=C(Cn1c(=O)cc(-c2nc(C3CC3)no2)c2ccccc21)Nc1ccc(F)cc1 | 616 |
| CSc1cccc(NC(=O)Cn2cccc(-c3nc(-c4ccc(Cl)cc4)no3)c2=O)c1 | 1020 |
| CCc1nnc(-c2ccc3ccn(CC(=O)Nc4ccc(CN5CCN(CC)CC5)cc4)c3c2)o1 | 612 |
| Cc1cc(C)n2c(Nc3c(C)cccc3C)c(-c3ccc(O)cc3)nc2n1 | 646 |
| O=C(CCc1nnn2c1CN(C(=O)c1ccccc1F)CC2)NC1CC1 | 615 |
| Cc1cc2nn(CC(=O)Nc3ccc(F)cc3F)c(=O)n2c(Nc2ccc(F)c(C)c2)n1 | 1060 |
| COc1ccc(Cl)cc1NC(=O)Cn1nc2c(N3CCCCCC3)nccn2c1=O | 804 |
| COc1cccc2cc(-c3nnc(NC(=O)NC4CCCC4)o3)oc12 | 830 |
| Cc1cc(C)c2c(N3CCOCC3)nc(C(=O)N3CCN(C4CCCCC4)CC3)nc2n1 | 574 |

| Compound | RP-LC retention time [s] |
| --- | --- |
| O=C1Nc2ccccc2SC1C(=O)N1CCC(C(=O)N2CCN(c3ccccc3)CC2)CC1 (stereo not drawn) | 766 |
| O=C(Cn1cnc2onc(-c3ccc(F)cc3)c2c1=O)N1CCCc2ccccc21 | 1040 |
| C=CCNC(=O)c1cnn(-c2cc(-c3nc(C(C)C)no3)ccn2)c1C | 776 |
| CC(C)Cc1csc(-c2csc(S(=O)(=O)NCc3ccccc3Cl)c2)n1 | 1330 |
| COc1cccc(-c2noc(Cn3c(=O)n(-c4ccc(Cl)cc4)c(=O)c4sccc43)n2)c1 | 1050 |
| Cc1ccccc1-c1cc(C(=O)N2CCC(NC(=O)C3CCCC3)CC2)[nH]n1 | 712 |
| COC[C@@H]1CN(Cc2c(C)n[nH]c2C)C[C@H]1c1ccncc1 | 559 |
| O=C(Nc1ccsc1-c1nnc(C2CC2)o1)c1cccs1 | 1160 |
| CCc1ccc(NC(=O)N2CCN(c3cnn4c(CC)nnc4c3)CC2)cc1 | 698 |
| CC(C)C(=O)NCc1csc(C2CCN(C(=O)C3(c4ccccc4)CC3)CC2)n1 | 740 |
| Cc1ccc(CN2CCCC(c3nc(C(C)C)no3)CCNC(=O)CC2)o1 (stereo not drawn) | 636 |
| CCc1noc(C2(NC(=O)C(CC)c3ccccc3)CCCCC2)n1 (stereo not drawn) | 1090 |
| CN1c2ccc(F)cc2C(=O)NC12CCN(C(=O)c1ccccc1)CC2 | 726 |
| O=C(Cn1ccc2ccn(Cc3ccccc3)c2c1=O)NCc1ccccc1Cl | 888 |
| Cc1ccc(-c2nc3ncccn3c2Nc2cc(C)cc(C)c2)cc1 | 866 |
| Cn1nnc2ccc(-c3noc(-c4cccc(Cl)c4)n3)cc21 | 1120 |
| COC[C@@H](NC(C)=O)C(=O)NCc1ccccc1 | 641 |
| CC1CCN(C(=O)C2c3ccccc3CCN2CC(=O)NCC2CCCCC2)CC1 (stereo not drawn) | 1070 |
| O=C(Cn1nnc2ccccc2c1=O)NCCc1c[nH]c2ccc(Cl)cc12 | 819 |
| COc1ccc(/C=C2\Cc3ccccc3C2=O)cc1OC | 892 |
| CCN1CCN(C(=O)C2CCN(c3nc4cccnc4s3)CC2)CC1 | 570 |
| Cc1cc(-c2cc(S(=O)(=O)NCCCOC(C)C)c(C)s2)n[nH]1 | 770 |

| Compound | RP-LC retention time [s] |
| --- | --- |
| O=C(C1=CN(c2cccc(C(F)(F)F)c2)c2cc(F)ccc2S1(=O)=O)N1CCOCC1 | 858 |
| CCC(C)Nc1nc(NC)nc(-n2cnc(SC)n2)n1 (stereo not drawn) | 790 |
| O=C(CSc1nnc(CNC(=O)c2ccc(F)cc2)o1)NCc1ccc2c(c1)OCO2 | 672 |
| COC[C@@H]1CN(S(=O)(=O)Cc2ccccc2)C[C@H]1c1ccncc1 | 637 |
| COc1cccc(OCC(O)CN2CCN(Cc3ccccc3)CC2)c1 (stereo not drawn) | 610 |
| CCC1CCCCN1C(=O)c1cnc2nc(C)ccc2c1Nc1ccc(OC)c(Cl)c1 (stereo not drawn) | 668 |
| C=CCN1CC[C@]23CCCCC2[C@H]1Cc1ccc(O)cc13 (stereo partly drawn) | 691 |
| O=C(NCc1cccnc1)c1cccn2c(=O)c3cc(Cl)ccc3nc12 | 657 |
| CC(C)n1c(C2CCN(C(=O)C3CCCO3)CC2)nn(C)c1=O (stereo not drawn) | 592 |
| CC1CN2C=NC(N3CCN(C(=O)c4ccccc4)CC3)=CC2=N1 (stereo not drawn) | 580 |
| O=C(c1ccsc1)N1CCC(Cc2nnc(-c3ccccc3)o2)CC1 | 774 |
| O=C(CN1C(=O)CC(c2ccco2)Sc2ccccc21)Nc1ccccc1C(F)(F)F (stereo not drawn) | 899 |
| COc1ccc(C2C(C(=O)NCCCN3CCOCC3)c3cc(OC)c(OC)cc3C(=O)N2C)cc1 (stereo not drawn) | 612 |
| Cc1ccc(-n2c(=O)c3sccc3n(Cc3nc(-c4ccc(Cl)c(F)c4)no3)c2=O)cc1 | 1150 |
| O=C(C1CCN(c2ccc(-n3cccn3)nn2)CC1)N1CCN(c2ncccn2)CC1 | 605 |
| CCOC(=O)c1csc(NC(=O)c2ccc3c(c2)OCCO3)n1 | 782 |
| CCCc1sc(Nc2ccccc2OCC)nc1-c1ccc(Cl)c(Cl)c1 | 1030 |
| CC(C)Cn1cc(CCNC(=O)c2cc(F)ccc2F)c2cccnc21 | 868 |
| COc1ccc(-c2ccc(N3CCN(C(=O)Cc4cn(C)c5ccccc45)CC3)nn2)cc1 | 656 |
| CC1(C(=O)NCc2ccccc2Cl)Cn2cnc(C(=O)NC3CCCCC3)c2C(=O)N1C1CC1 (stereo not drawn) | 840 |
| COc1ccc(N2C(=O)C3N=NN(Cc4nc(-c5ccc(C)c(C)c5)no4)C3C2=O)cc1 (stereo not drawn) | 1050 |
| CC(C)CCNC(=O)CCCn1c2ccccc2c2cnn(C)c(=O)c21 | 865 |
